The target of data set [1] is T1, Disintegrin and metalloproteinase domain-containing protein 17 (Homo sapiens, UniProt P78536). As to the kind of experiment: Inhibition of LPS-stimulated TNF production in THP cells at 1 uM. It counts as functional, cell-based.
Data set [2] addresses T1, Disintegrin and metalloproteinase domain-containing protein 17. As to the kind of experiment: Inhibition of LPS-stimulated TNF production in THP cells at 3 uM. It is filed as functional, cell-based.
Another data set has as its target Collagenase 3 (Homo sapiens, UniProt P45452). As to the kind of experiment: Inhibition of MMP13.
A further data set concerns the target T2, Interstitial collagenase (Homo sapiens, UniProt P03956).
T2 sequence (P03956 whole entry): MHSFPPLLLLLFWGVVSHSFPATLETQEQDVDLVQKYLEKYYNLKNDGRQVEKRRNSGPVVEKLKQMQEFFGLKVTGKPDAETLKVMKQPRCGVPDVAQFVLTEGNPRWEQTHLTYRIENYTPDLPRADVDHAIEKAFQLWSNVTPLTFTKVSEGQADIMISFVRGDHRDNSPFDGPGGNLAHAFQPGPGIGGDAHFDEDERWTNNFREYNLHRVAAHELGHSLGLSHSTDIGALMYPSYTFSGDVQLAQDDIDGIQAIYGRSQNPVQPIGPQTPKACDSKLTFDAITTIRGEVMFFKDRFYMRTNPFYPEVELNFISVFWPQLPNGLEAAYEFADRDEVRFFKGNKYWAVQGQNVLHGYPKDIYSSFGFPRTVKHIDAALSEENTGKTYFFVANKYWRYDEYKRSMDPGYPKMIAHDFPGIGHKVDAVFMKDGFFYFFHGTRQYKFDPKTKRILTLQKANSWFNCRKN
As to the kind of experiment: Inhibition of MMP1.

Data set [3] deals with T1, Disintegrin and metalloproteinase domain-containing protein 17. The experiment in a line: Inhibition of TACE.
A short description of data set [4]: Bioavailability in dog at 10 mg/kg. It counts as ADME, organism-based, Canis lupus familiaris. To be noted: in vivo.
Data set [5] is described as follows: Bioavailability in rat at 10 mg/kg. It counts as ADME, organism-based. To be noted: in vivo.
The nature of data set [6]: Bioavailability in mouse at 10 mg/kg. It counts as ADME, organism-based. The settings on record: in vivo.
The species entered for data set [7] is Mus musculus. The experiment in a line: Inhibition of LPS-stimulated TNFalpha production in mouse. It is filed as functional.
Data set [8] in a line: Permeability across Caco-2 cell membrane. It is filed as ADME, cell-based. To be noted: human.
In data set [9] the test system is Mus musculus. As to the kind of experiment: Inhibition of LPS-stimulated TNFalpha production in mouse at 50 mg/kg, po. It is filed as functional.

Structures are written as SMILES.

T1 sequence (P78536 whole entry, the tested form may be a part): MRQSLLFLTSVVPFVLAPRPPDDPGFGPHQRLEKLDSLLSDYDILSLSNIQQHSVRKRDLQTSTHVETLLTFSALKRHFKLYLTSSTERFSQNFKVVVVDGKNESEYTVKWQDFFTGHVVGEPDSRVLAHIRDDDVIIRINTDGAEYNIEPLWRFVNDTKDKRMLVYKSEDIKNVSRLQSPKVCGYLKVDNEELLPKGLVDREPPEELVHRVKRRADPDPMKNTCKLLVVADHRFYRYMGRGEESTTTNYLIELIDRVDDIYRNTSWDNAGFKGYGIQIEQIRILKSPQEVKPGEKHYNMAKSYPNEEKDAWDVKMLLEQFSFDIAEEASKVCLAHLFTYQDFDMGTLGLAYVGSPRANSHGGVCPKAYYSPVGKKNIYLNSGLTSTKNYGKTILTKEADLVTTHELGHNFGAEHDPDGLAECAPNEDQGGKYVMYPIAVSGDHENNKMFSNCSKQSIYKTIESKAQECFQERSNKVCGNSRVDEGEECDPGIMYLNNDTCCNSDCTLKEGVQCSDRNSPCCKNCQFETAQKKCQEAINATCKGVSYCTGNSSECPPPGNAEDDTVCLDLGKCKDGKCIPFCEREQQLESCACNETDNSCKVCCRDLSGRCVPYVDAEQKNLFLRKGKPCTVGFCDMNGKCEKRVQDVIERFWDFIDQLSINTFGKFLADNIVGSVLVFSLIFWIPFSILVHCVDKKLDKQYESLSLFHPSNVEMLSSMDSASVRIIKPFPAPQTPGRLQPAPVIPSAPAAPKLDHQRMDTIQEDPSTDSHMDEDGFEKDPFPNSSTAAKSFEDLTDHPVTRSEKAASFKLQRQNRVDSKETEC

A word on the inhibition: it is the relative decrease from the control value, in per cent. Regarding `CC#CCOc1ccc(S(=O)(=O)N2C[C@H](CC(N)=O)SC(C)(C)[C@@H]2C(=O)NO)cc1`, the inhibition in [1] turned out to be 76%; in data set [2] it was 91%.

Usually IC50 stands for the concentration at which inhibition is half-maximal. The low end stands for inhibition by little substance, the high end for a need for much substance. Regarding `C#CCCOc1ccc(S(=O)(=O)N2CCSC(C)(C)[C@@H]2C(=O)NO)cc1`, the inhibition in data set [1] came to 36%; in [2], 64%. Besides, the IC50 amounted to 1 nM against Collagenase 3, 2 nM on Interstitial collagenase and 32 nM in data set [3].

Regarding `CC#CCOc1ccc(S(=O)(=O)N2C[C@H](CNS(C)(=O)=O)SC(C)(C)[C@@H]2C(=O)NO)cc1`, the values for the inhibition in data set [1] and in data set [2] were 81% and 91%, respectively. Also, the half-inhibitory concentration (IC50) on Collagenase 3 came out at 14 nM; against Interstitial collagenase, 19 nM; in data set [3] it was 11 nM.

On to `CC#CCOc1ccc(S(=O)(=O)N2C[C@H](CC(=O)O)SC(C)(C)[C@@H]2C(=O)NO)cc1`, for which the results for the inhibition in [1] and in data set [2] were 73% and 89%, respectively. This compound also came in with a half-inhibitory concentration (IC50) on Collagenase 3 of 7 nM.

For the compound `CCCCOc1ccc(S(=O)(=O)N2CCSC(C)(C)[C@@H]2C(=O)NO)cc1`, the inhibition amounted to 11% in data set [1] and 38% in data set [2]. The figures for the 50% inhibitory concentration (IC50) (at Collagenase 3; at Interstitial collagenase; in data set [3]) were 9 nM, 7 nM and 42 nM, respectively.

For `CC1(C)SCCN(S(=O)(=O)c2ccc(OCC#CCCO)cc2)[C@H]1C(=O)NO`, the inhibition in data set [1] was found to be 25%; in [2], 57%. Further, the figures for the IC50 (at Collagenase 3; at Interstitial collagenase; in [3]) were 14 nM, 35 nM and 62 nM, respectively.

`CC(C)(C)OC(=O)NCC#CCOc1ccc(S(=O)(=O)N2CCSC(C)(C)[C@@H]2C(=O)NO)cc1`: the inhibition came out at 53% in data set [1] and 79% in data set [2]. In addition, the half-maximal inhibitory concentration (IC50) stood at 4 nM against Collagenase 3, 26 nM on Interstitial collagenase and 74 nM in data set [3].

On to `CC1(C)SCCN(S(=O)(=O)c2ccc(OCC#CCCN)cc2)[C@H]1C(=O)NO`, for which the inhibition in data set [1] stood at 0%; in data set [2], 4%. The IC50 on Collagenase 3 amounted to 27 nM; against Interstitial collagenase, 1050 nM; in data set [3], 138 nM.

What is called bioavailability is dose-corrected exposure relative to a reference, in per cent. A lower bioavailability goes with poor availability. As to `CC#CCOc1ccc(S(=O)(=O)N2CCSC(C)(C)[C@@H]2C(=O)NO)cc1`, the inhibition in data set [1] turned out to be 87%; in [2] it was 94%. Moreover, the bioavailability came to 0% in [4], 5% in data set [5] and 71% in data set [6].

Regarding `CCCCC#CCOc1ccc(S(=O)(=O)N2CCSC(C)(C)[C@@H]2C(=O)NO)cc1`, the inhibition is 48% in [1] and 82% in data set [2]. Also, the half-maximal inhibitory concentration (IC50) at Collagenase 3 is 7 nM; on Interstitial collagenase, 29 nM; in data set [3], 23 nM.

For the compound `CC(C)(C)OC(=O)NCCCCC#CCOc1ccc(S(=O)(=O)N2CCSC(C)(C)[C@@H]2C(=O)NO)cc1`, the inhibition came to 40% in [1] and 70% in data set [2]. For the same compound, on Collagenase 3, the IC50 amounted to 4 nM.

As to `CC1(C)SCCN(S(=O)(=O)c2ccc(OCC#CCCCN)cc2)[C@H]1C(=O)NO`, the inhibition amounted to 0% in [1] and 22% in data set [2]. Also, the IC50 against Collagenase 3 came out at 9 nM.

As usually defined, the ED50 is the dose at which the effect has come halfway, by size or by number of responders. Higher therefore signals a need for a large dose. By Papp is commonly meant a coefficient for how fast a substance crosses the barrier. For orientation: inhibition in vivo means the percentage by which the read-out fell short of the control. The low end stands for a response near the control, the high end for a response far below the control. In the data set listed under Mus musculus [7], `CC1(C)SCCN(S(=O)(=O)c2ccc(OCC#CCO)cc2)[C@H]1C(=O)NO` yielded an ED50 of 5 mg/kg. Moreover, the half-inhibitory concentration (IC50) in [1] was found to be 140 nM; on Collagenase 3, 8 nM. Further, the inhibition in data set [1] worked out at 89%; in data set [2], 95%. In [8], the Papp was 2.2 ×10⁻⁶ cm/s. Moreover, the bioavailability was found to be 36% in data set [4], 8% in data set [5] and 24% in data set [6]. Also, the inhibition in vivo at 50 mg/kg with Mus musculus [9] is at least 95%.

With `C/C=C/COc1ccc(S(=O)(=O)N2CCSC(C)(C)[C@@H]2C(=O)NO)cc1`, the inhibition was 50% in data set [1] and 80% in [2]. Also, the concentration for half-maximal inhibition (IC50) at Collagenase 3 worked out at 2 nM; against Interstitial collagenase, 7 nM; in data set [3], 35 nM.

With `CC#CCOc1ccc(S(=O)(=O)N2C[C@H](CN)SC(C)(C)[C@@H]2C(=O)NO)cc1`, the inhibition is 78% in data set [1] and 94% in data set [2]. In the data set on Mus musculus [9], this compound yielded an inhibition in vivo at 50 mg/kg of at least 95%.

As for `CC1(C)SCCN(S(=O)(=O)c2ccc(OCC#CCCCCN)cc2)[C@H]1C(=O)NO`, the inhibition in [1] came out at 13%; in data set [2], 37%. This compound also came in with an IC50 against Collagenase 3 of 7 nM.

For the compound `CC(C)(C)OC(=O)NCCCC#CCOc1ccc(S(=O)(=O)N2CCSC(C)(C)[C@@H]2C(=O)NO)cc1`, the inhibition in data set [1] was 5%; in data set [2], 27%. This compound showed an IC50 on Collagenase 3 of 2 nM.

Consider `CC(C)(C)OC(=O)NCCC#CCOc1ccc(S(=O)(=O)N2CCSC(C)(C)[C@@H]2C(=O)NO)cc1`, for which the inhibition in data set [1] was 14%; in data set [2], 37%. Moreover, the half-inhibitory concentration (IC50) is 7 nM on Collagenase 3, 300 nM against Interstitial collagenase and 112 nM in [3].

In the case of `CC1(C)SCCN(S(=O)(=O)c2ccc(OCC#CCCCO)cc2)[C@H]1C(=O)NO`, the inhibition in data set [1] was determined as 19%; in data set [2] it was 51%. Also, the IC50 stood at 86 nM on Collagenase 3, 159 nM against Interstitial collagenase and 40 nM in data set [3].

For the compound `CC1(C)SCCN(S(=O)(=O)c2ccc(OCC#CCCCCO)cc2)[C@H]1C(=O)NO`, the values for the inhibition in [1] and in data set [2] were 52% and 77%, respectively.

In the case of `CC1(C)SCCN(S(=O)(=O)c2ccc(OCC#CCN)cc2)[C@H]1C(=O)NO`, the inhibition in data set [1] was 10%; in [2] it was 40%. Also, the IC50 against Collagenase 3 is 8 nM; against Interstitial collagenase, 97 nM.

Take `CC#CCOc1ccc(S(=O)(=O)N2C[C@H](CCO)SC(C)(C)[C@@H]2C(=O)NO)cc1`: the inhibition in data set [1] was determined as 74%; in [2], 90%. Besides, the values for the half-inhibitory concentration (IC50) (on Collagenase 3; against Interstitial collagenase; in [3]) were 23 nM, 21 nM and 15 nM, respectively. In the data set with Mus musculus [9], this compound returned an inhibition in vivo at 50 mg/kg of at least 95%.

`C#CCCCOc1ccc(S(=O)(=O)N2CCSC(C)(C)[C@@H]2C(=O)NO)cc1`: the results for the inhibition in data set [1] and in [2] were 16% and 38%, respectively. Besides, the concentration for half-maximal inhibition (IC50) against Collagenase 3 came out at 8 nM; against Interstitial collagenase it was 11 nM; in data set [3] it was 40 nM.

With `CC#CCOc1ccc(S(=O)(=O)N2C[C@H](CCN(CC)CC)SC(C)(C)[C@@H]2C(=O)NO)cc1`, the inhibition in data set [1] was found to be 67%; in [2], 87%. In addition, the values for the IC50 (at Collagenase 3; against Interstitial collagenase; in data set [3]) were 48 nM, 33 nM and 143 nM, respectively. In the data set with Mus musculus [9], this compound yielded an inhibition in vivo at 50 mg/kg of at least 95%.

Take `C#CCOc1ccc(S(=O)(=O)N2CCSC(C)(C)[C@@H]2C(=O)NO)cc1`: the inhibition in data set [1] was 76%; in data set [2], 91%. Moreover, the 50% inhibitory concentration (IC50) at Collagenase 3 and on Interstitial collagenase was 1 nM in each case.

On to `C#CC#CCOc1ccc(S(=O)(=O)N2CCSC(C)(C)[C@@H]2C(=O)NO)cc1`, for which the values for the inhibition in [1] and in data set [2] were 62% and 88%, respectively. This compound also yielded a half-inhibitory concentration (IC50) at Interstitial collagenase of 6 nM.

Source of the values: ChEMBL document CHEMBL1139018, “Acetylenic TACE inhibitors. Part 3: Thiomorpholine sulfonamide hydroxamates” (Bioorg Med Chem Lett, 2006).
